# Laboratory results published in US11752169B2, “Treatment of pain with polysulfated polysaccharides” (PARADIGM BIOPHARMACEUTICALS LTD., priority 2018, dated 2023).
# Entries after “also recorded” stand apart in the source; their conditions may differ.
# Legend:
# IL-6 mRNA = assay: real-time RT-PCR for IL-6 mRNA in KOA osteocyte-like cultures; assay type: cell-based, human; settings: PPS 1 μg/mL + rhTNFα 1 ng/mL, 48 h (FIG. 17)
# Procedure: (§1) Cryopreserved cells from each donor (all at passage 0 or 1) were thawed and cultured for 10d in T75 cm^2 tissue culture flasks. Once confluent, cells were removed by collagenase/dispase digestion, washed by centrifugation, counted and adjusted to 5×10^5 cells/mL. Cells were then seeded into either 12-well tissue culture trays or into 8-well chamber slides, at 1×10^5 and 2×10^4 cells/well, respectively. After 24 h, media were replaced with osteogenic differentiation medium, consisting of αMEM, 5% v/v foetal calf serum (FCS), 1.8 mM potassium dihydrogen phosphate (KH2PO4), 100 μM Ascorbate-2-phosphate (As2P), 10 mM HEPES, 10^−8 M Dexamethasone and 0.2 mM L-Glutamine. During the differentiation process, samples were collected at days 3, 14 and 28 in Trizol reagent for total RNA preparation and gene expression analysis (see below). […]
# (§2) Following three days of pre-treatment of osteocyte-like cultures with PPS and a further 48 h treatment period, total RNA was isolated for the purposes of analysing gene expression using real-time RT-PCR. While the quality of the RNA isolated from all cultures appeared to be high, as adjudged by Nanodrop micro-spectrophotometry showing the ratio of absorbance at 260 nm/280 nm generally being between 1.9 and 2.0, there was a consistent inability to generate complementary DNA (cDNA) from any samples exposed to 5 or 50 μg/mL PPS, except in one or two samples. […]
# NGF = NGF immunostaining / confocal microscopy of osteocytes freshly isolated from human KOA bone; assay type: cell-based; settings: osteocyte-enriched fractions of KOA bone digests, 24 h, qualitative (FIG. 22)
# Procedure: FIG. 22. NGF expression in isolated human osteocytes. Osteocyte-enriched fractions of sequential human trabecular bone digests were cultured for 24 h either untreated (A), treated with rhTNFα (B), PPS (0.5 μg/mL) (C) or a combination of both (D), and then examined by confocal microscopy for NGF immunoreactivity. Control cells were also immunostained using an isotype-matched negative control primary antibody (E). Images are representative of data obtained from two individual donors. Scale bars in each image represent 100 μm.
# Cell seeded in 8-well chamber slides and differentiated for 28 days or freshly digested from bone were either untreated or treated with rhTNFα (1 ng/mL), PPS (50 μg/mL; ‘PPS50’) or PPS50+rhTNFα. Following differentiation, medium was removed and all wells rinsed with PBS (pH 7.4, Gibco) a total of three times. Cells were then fixed with 100 μL of Histochoice (Sigma-Aldrich) tissue fixative for 1 hour at room temperature. After fixation, wells were rinsed twice with distilled H2O and stored at 4° C. until staining. Cells were blocked with 50 μL of blocking buffer (5% v/v normal rabbit serum in 1×PBS) for 20 minutes at room temperature in a humid chamber. Cells were then rinsed with wash buffer (0.1% v/v normal rabbit serum in PBS) three times. […]
# COX2 mRNA = assay: real-time RT-PCR for COX2 mRNA in KOA osteocyte-like cultures; assay type: cell-based, human
# Procedure: as §1, §2
substance,measurement,setting,value
Sodium Pentosan Polysulfate [PPS],effect of rhTNFα on IL-6 mRNA expression,IL-6 mRNA,inhibited
same,"NGF expression (immunostaining), combination of rhTNF-α and PPS",NGF; PPS 0.5 μg/mL + rhTNFα,downregulated; also recorded: qualitatively less staining
same,"NGF expression (immunostaining), PPS alone vs control",NGF; PPS 0.5 μg/mL,qualitatively greater
same,"COX2 mRNA expression, PPS alone",COX2 mRNA; PPS 1 μg/mL (FIG. 18),completely inhibited
same,"COX2 mRNA expression, PPS in combination with rhTNFα",COX2 mRNA; PPS 1 μg/mL + rhTNFα 1 ng/mL (FIG. 18),completely inhibited
